# Measured values reported in patent US20250000837A1, “METHOD FOR TREATING RETINAL DEGENERATION” (SMILEBIOTEK ZHUHAI LIMITED, priority 2021, published 2025).
# Assays:
# [1] = test system: drusen-like lesion in retinal tissue of a macaque; conditions: administered to vitreous humor; cited from earlier work
# [2] = test system: Crb1^rd8/rd8 mouse suffering from fundus degenerative retinopathy; test: Intragastric administration therapy of Crb1^rd8/rd8 mouse suffering from fundus degenerative retinopathy; count of fundus light spots; type: in vivo; conditions: for Eyes with slight decrease of crystalline lens transparency (fundus light spots cannot be observed clearly): 0.3 g/kg intragastric; for Change of spots 4 weeks after drug administration / Change of spots 2 weeks after drug administration: change of number of fundus light spots, Crb1^rd8/rd8 mouse, mean ± s; for Change of spots 4 weeks after drug administration: 0.3 g/kg intragastric once every other day for 4 weeks, P = 0.0005 vs model control group; for Change of spots 2 weeks after drug administration: 0.3 g/kg intragastric once every other day, P = 0.1518 vs model control group
# Description: The mouse is anaesthetized and pupils are dilated. A cornea remains moist by applying hydroxypropyl methylcellulose eye drops regularly. A mouse fundus photo is obtained by using a Micron IV mouse fundus camera (Phoenix Research Laboratories, Inc., Pleasanton, CA, USA).
# When a sample for test is prepared, 4 mL of castor oil which is already autoclaved is measured, 1.2 g of compound 6 powder is weighted, 1-2 mL of castor oil is added, full grinding is performed, a ground drug and residual castor oil are all transferred to a 50 mL tube with 36 mL ultrapure water to be oscillated and uniformly mixed for still standing overnight, so a compound 6 suspension with a concentration being 30 mg/mL is prepared, and the prepared drug liquid is labeled, saved at a normal temperature and used up within a month.
# • Species and strains: Crb1^rd8/rd8 mouse • Grade: SPF grade • Quantity and gender: 18 mice, either gender • Weight range: 16-24 g • Supply unit: Gempharmatech Co., Ltd.
# When drug administration starts, a healthy one-month-old Crb1^rd8/rd8 mouse is selected for an experiment.
# Animals are hierarchically divided according to weights and then randomly divided into a model control group and a compound 6 group.
# Drug administration route and method: intragastric administration, 10.0 mL/kg weight
# Drug administration frequency and time limit: once every other day, for 4 weeks
# Dosage of the compound 6 is 0.3 g/kg weight for the mouse and is converted according to previous clinical medication.
# One-month-old Crb1^rd8/rd8 mice are randomly divided into the model control group and the compound 6 drug administration group. A solvent or a compound 6 drug is administered intragastrically to the animals, a dosage of the compound 6 is 0.3 g/kg, once every other day, continuous drug administration for 4 weeks. The number of fundus light slots 2 weeks and 4 weeks after the mouse is administered intragastrically is recorded for analysis and comparison.
# A change of the number of fundus light spots of the mice at each time point after drug administration is used as a parameter, and SPSS software is used for the statistic analysis. A statistical result is represented by X+s; and an inspection level=0.05, and an average of experiment data and statistically processed data remain 2 decimal places.
SMILES,Size of the drusen-like lesion in retinal tissue compared with a control [1],"Inhibition of fundus degenerative retinopathy ([2]; Crb1^rd8/rd8 mice, dosage of 0.3 g/kg)","Eyes with slight decrease of crystalline lens transparency (fundus light spots cannot be observed clearly) ([2]; Week 2 of the experiment, attributed to anesthesia, correlation with compound not excluded)","Eyes with slight decrease of crystalline lens transparency (fundus light spots cannot be observed clearly) ([2]; Week 4 of the experiment, 1/18 eye also in model control group)",Change of spots 4 weeks after drug administration [2],Change of spots 4 weeks after drug administration ([2]; listed as compound 6),Change of spots 2 weeks after drug administration [2],Change of spots 2 weeks after drug administration ([2]; listed as compound 6)
CN[C@H](CC(C)C)C(=O)N[C@H]1C(=O)N[C@@H](CC(N)=O)C(=O)N[C@H]2C(=O)N[C@H]3C(=O)N[C@H](C(=O)N[C@H](C(=O)O)c4cc(O)cc(O)c4-c4cc3ccc4O)[C@H](O)c3ccc(c(Cl)c3)Oc3cc2cc(c3O[C@@H]2O[C@H](CO)[C@@H](O)[C@H](O)[C@H]2O[C@H]2C[C@](C)(N)[C@H](O)[C@H](C)O2)Oc2ccc(cc2Cl)[C@H]1O [vancomycin],reduce a size of the drusen-like lesion,–,–,–,–,–,–,–
"CCCCCCCCOC(=O)c1cc(O)c(O)c(O)c1 [Compound 6, octyl gallate]",–,effectively inhibit,2/18,1/18,−3.63 ± 4.06,−3.63±4.06,1.31 ± 3.18,1.31±3.18
